The source of these data is US20240034736A1, “HSD17B13 INHIBITORS AND USES THEREOF” (FL2022-001, Inc., priority 2020, published 2024).

Molecules are shown by their SMILES.

Chain of Recombinant human HSD17B13 enzyme (Q7Z5P4 20-300): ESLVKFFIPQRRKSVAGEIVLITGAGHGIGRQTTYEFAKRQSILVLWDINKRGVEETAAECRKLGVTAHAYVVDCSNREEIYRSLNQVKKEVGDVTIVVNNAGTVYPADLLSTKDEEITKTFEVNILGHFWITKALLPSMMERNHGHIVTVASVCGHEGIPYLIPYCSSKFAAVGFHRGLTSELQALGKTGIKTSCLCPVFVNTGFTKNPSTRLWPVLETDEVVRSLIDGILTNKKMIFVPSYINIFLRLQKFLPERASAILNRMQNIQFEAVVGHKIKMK

The target in one experiment is Recombinant human HSD17B13 enzyme (Homo sapiens (Human), UniProt Q7Z5P4). Description: HSD17b13 NAD(P)H-Glo Biochemical Assay. Particulars: 50 uM estradiol, 1 mM NAD+; read-out: HSD17β13 IC50. Put shortly:
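Recombinant human HSD17B13 was pre-incubated with inhibitor for 20 min at RT in 20 mM Tris pH 7.4 with 0.002% Tween-20 and 0.02% BSA. Reaction then ran with 50 uM estradiol and 1 mM NAD+ (final) for 3 h at 37° C. NADH formed was detected by NAD(P)H-Glo luminescence after 1 h at RT.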
As to `Cc1nn(-c2ccc(Cl)c(O)c2F)c2cc(F)c(N3CCN(S(C)(=O)=O)CC34CC4)cc12` [Compound 19.104, 6-Chloro-2-fluoro-3-(6-fluoro-3-methyl-5-(7-(methylsulfonyl)-4,7-diazaspiro[2.5]octan-4-yl)-1H-indazol-1-yl)phenol], the half-maximal inhibitory concentration (IC50) is < 100 nM.

With `Cc1nn(-c2cc(C(F)(F)F)c(F)c(O)c2F)c2cnc(N3CCN(S(C)(=O)=O)C4(CCCCC4)C3)cc12` [Compound 19.105, 2,6-Difluoro-3-(3-methyl-5-(1-(methylsulfonyl)-1,4-diazaspiro[5.5]undecan-4-yl)-1H-pyrazolo[3,4-c]pyridin-1-yl)-5-(trifluoromethyl)phenol], the IC50 was < 100 nM. Take `CNc1nn(-c2cc(C(F)(F)F)c(F)c(O)c2F)c2ccc(N(C)C3CCOCC3)cc12` [Compound 19.106, 2,6-Difluoro-3-(5-(methyl(tetrahydro-2H-pyran-4-yl)amino)-3-(methylamino)-1H-indazol-1-yl)-5-(trifluoromethyl)phenol]: the concentration for half-maximal inhibition (IC50) lay within 100 to 1000 nM. On the same count and under the same terms, next, `Cc1nn(-c2cc(C(F)(F)F)c(F)c(O)c2F)c2cnc(N3CCN(S(C)(=O)=O)CC34CC4)nc12` [Compound 19.107, 2,6-Difluoro-3-(3-methyl-5-(7-(methylsulfonyl)-4,7-diazaspiro[2.5]octan-4-yl)-1H-pyrazolo[4,3-d]pyrimidin-1-yl)-5-(trifluoromethyl)phenol]: < 100 nM. On the same count and under the same terms, next, `Cc1nn(-c2cc(C(F)(F)F)c(F)c(O)c2F)c2cnc(N3CCO[C@H](c4ccccc4)C3)cc12` [Compound 19.108, (R)-2,6-Difluoro-3-(3-methyl-5-(2-phenylmorpholino)-1H-pyrazolo[3,4-c]pyridin-1-yl)-5-(trifluoromethyl)phenol]: < 100 nM.

Regarding `Cc1nn(-c2cc(C(F)(F)F)c(F)c(O)c2F)c2cnc(N3CCO[C@@H](c4ccccc4)C3)cc12` [Compound 19.109, (S)-2,6-Difluoro-3-(3-methyl-5-(2-phenylmorpholino)-1H-pyrazolo[3,4-c]pyridin-1-yl)-5-(trifluoromethyl)phenol], the IC50 was in the range of 100 to 1000 nM. Still for that read-out and setting: next, `Cc1nn(-c2cc(C(F)(F)F)c(Cl)c(O)c2F)c2cc(F)c(N3CCN(S(C)(=O)=O)CC34CC4)cc12` [Compound 19.110, 2-Chloro-6-fluoro-5-(6-fluoro-3-methyl-5-(7-(methylsulfonyl)-4,7-diazaspiro[2.5]octan-4-yl)-1H-indazol-1-yl)-3-(trifluoromethyl)phenol]: < 100 nM; `CN(c1ccc2c(c1)c(C(N)=O)nn2-c1cc(C(F)(F)F)c(F)c(O)c1F)C1CCOCC1` [Compound 19.111, 1-(2,4-Difluoro-3-hydroxy-5-(trifluoromethyl)phenyl)-5-(methyl(tetrahydro-2H-pyran-4-yl)amino)-1H-indazole-3-carboxamide]: 100 to 1000 nM; `CNC(=O)c1nn(-c2cc(C(F)(F)F)c(F)c(O)c2F)c2ccc(N(C)C3CCOCC3)cc12` [Compound 19.112, 1-(2,4-Difluoro-3-hydroxy-5-(trifluoromethyl)phenyl)-N-methyl-5-(methyl(tetrahydro-2H-pyran-4-yl)amino)-1H-indazole-3-carboxamide]: 1000 to 30000 nM. Consider `CN(C)C(=O)c1nn(-c2cc(C(F)(F)F)c(F)c(O)c2F)c2ccc(N(C)C3CCOCC3)cc12` [Compound 19.113, 1-(2,4-Difluoro-3-hydroxy-5-(trifluoromethyl)phenyl)-N,N-dimethyl-5-(methyl(tetrahydro-2H-pyran-4-yl)amino)-1H-indazole-3-carboxamide], for which the half-maximal inhibitory concentration (IC50) fell in the range of 1000 to 30000 nM. With `Cc1nn(-c2cc(C(F)(F)F)c(F)c(O)c2F)c2cc(Cl)c(N3CCOCC34CC4)nc12` [Compound 19.114, 3-(6-Chloro-3-methyl-5-(7-oxa-4-azaspiro[2.5]octan-4-yl)-1H-pyrazolo[4,3-b]pyridin-1-yl)-2,6-difluoro-5-(trifluoromethyl)phenol], the concentration for half-maximal inhibition (IC50) was < 100 nM.

As for `Cc1nn(-c2cc(C(F)(F)F)c(F)c(O)c2F)c2cc(Cl)c(N(C)C3CCOCC3)nc12` [Compound 19.115, 3-(6-Chloro-3-methyl-5-(methyl(tetrahydro-2H-pyran-4-yl)amino)-1H-pyrazolo[4,3-b]pyridin-1-yl)-2,6-difluoro-5-(trifluoromethyl)phenol], the IC50 is < 100 nM. The same measure, in the same setting: under `Cc1nn(-c2cc(C(F)(F)F)c(Cl)c(O)c2F)c2cnc(N3CCOCC34CC4)cc12` [Compound 19.116, 2-Chloro-6-fluoro-5-(3-methyl-5-(7-oxa-4-azaspiro[2.5]octan-4-yl)-1H-pyrazolo[3,4-c]pyridin-1-yl)-3-(trifluoromethyl)phenol] stands < 100 nM; under `CCCCCOc1ncc2c(n1)c(C)nn2-c1cc(C(F)(F)F)c(F)c(O)c1F` [Compound 19.117, 2,6-Difluoro-3-(3-methyl-5-(pentyloxy)-1H-pyrazolo[4,3-d]pyrimidin-1-yl)-5-(trifluoromethyl)phenol], 100 to 1000 nM; under `Cc1nn(-c2cc(C(F)(F)F)c(F)c(O)c2F)c2cnc(N3CCNCC3)nc12` [Compound 19.118, 2,6-Difluoro-3-(3-methyl-5-(piperazin-1-yl)-1H-pyrazolo[4,3-d]pyrimidin-1-yl)-5-(trifluoromethyl)phenol], 1000 to 30000 nM. On the same count and under the same terms, next, `Cc1nn(-c2nc(C(F)(F)F)c(F)c(O)c2F)c2cnc(N3CCOCC34CC4)cc12` [Compound 19.119, 3,5-Difluoro-2-(3-methyl-5-(7-oxa-4-azaspiro[2.5]octan-4-yl)-1H-pyrazolo[3,4-c]pyridin-1-yl)-6-(trifluoromethyl)pyridin-4-ol]: 1000 to 30000 nM; `CS(=O)(=O)N1CCN(c2ccc3c(cnn3-c3ccc(F)c(O)c3)c2)CC1` [Compound 20, 2-Fluoro-5-(5-(4-(methylsulfonyl)piperazin-1-yl)-1H-indazol-1-yl)phenol]: 1000 to 30000 nM; `Oc1cc(-n2ncc3cc(N4CCC(O)CC4)ccc32)ccc1F` [Compound 20.01, 1-(1-(4-Fluoro-3-hydroxy-phenyl)-1H-indazol-5-yl)-piperidin-4-ol]: 1000 to 30000 nM.

Staying with this experiment, now noted: read-out: HSD17β13 inhibition at 10 uM.
Regarding `Cc1nn(-c2cccc(O)c2C#N)c2cnc(N(C)C3CCOCC3)cc12` [Compound 19.120, 2-Hydroxy-6-(3-methyl-5-(methyl(tetrahydro-2H-pyran-4-yl)amino)-1H-pyrazolo[3,4-c]pyridin-1-yl)benzonitrile], the inhibition at 10 µM came to 25%. As for `Cc1nn(-c2cc(O)c(F)c(C(=O)O)c2)c2cnc(N3CCOCC34CC4)cc12` [Compound 19.121, 2-Fluoro-3-hydroxy-5-(3-methyl-5-(7-oxa-4-azaspiro[2.5]octan-4-yl)-1H-pyrazolo[3,4-c]pyridin-1-yl)benzoic Acid], the inhibition at 10 µM is < 20%. `CNC(=O)c1cc(-n2nc(C)c3cc(N4CCOCC45CC5)ncc32)cc(O)c1F` [Compound 19.122, 2-Fluoro-3-hydroxy-N-methyl-5-(3-methyl-5-(7-oxa-4-azaspiro[2.5]octan-4-yl)-1H-pyrazolo[3,4-c]pyridin-1-yl)benzamide]: the inhibition at 10 µM was found to be 20%.

The experiment is the same for the next values; noted with them: read-out: HSD17β13 inhibition at 30 uM.
In the case of `CS(=O)(=O)N1CCN(c2cc3cnn(-c4cc(O)cc(C#N)c4)c3cn2)CC1` [Compound 19.123, 3-Hydroxy-5-(5-(4-(methylsulfonyl)piperazin-1-yl)-1H-pyrazolo[3,4-c]pyridin-1-yl)benzonitrile], the inhibition at 30 µM is 30%.
